Experimental data published in ChEMBL document CHEMBL5126509, “Dual target inhibitors based on EGFR: Promising anticancer agents for the treatment of cancers (2017-)” (Eur J Med Chem, 2022).

Columns and labels:
[1] = target: T1, Epidermal growth factor receptor (Homo sapiens, UniProt P00533); assay: Inhibition of EGFR (unknown origin) incubated for 30 mins in presence of ATP by fluorescence based analysis
[2] = target: T1, Epidermal growth factor receptor; assay: Inhibition of EGFR (unknown origin) by ADP-Glo kinase assay
[3] = target: Tyrosine-protein kinase CSK (Homo sapiens, UniProt P41240); assay: Inhibition of CSK (unknown origin) by ADP-Glo kinase assay
[4] = target: Fibroblast growth factor receptor 1 (Homo sapiens, UniProt P11362); assay: Inhibition of N-terminal GST-tagged recombinant wild type human FGFR1 (398 to 822 residues) expressed in baculovirus infected Sf21 cells incubated for 1 hr in presence of ATP by caliper mobility shift assay
[5] = system: NCI-H1975; assay: Antiproliferative activity against human NCI-H1975 cells assessed as cell growth inhibition incubated for 72 hrs by MTS assay; type: functional, cell-based; details: NCI-H1975, 72 h
[6] = target: T1, Epidermal growth factor receptor; assay: Inhibition of human EGFR expressed in baculovirus expression system using CAGAGAIETDKEYYTVKD as substrate preincubated for 10 mins followed by substrate and ATP addition measured after 1 hr by TR-FRET assay
[7] = target: T2, Epidermal growth factor receptor (Homo sapiens, UniProt P00533, T790M); assay: Inhibition of human EGFR T790M mutant expressed in baculovirus expression system using CAGAGAIETDKEYYTVKD as substrate preincubated for 10 mins followed by substrate and ATP addition measured after 1 hr by TR-FRET assay
[8] = target: Tubulin; assay: Inhibition of tubulin polymerization in human HCT-116 cells incubated for 18 to 24 hrs by horseradish peroxidase based ELISA method; type: cell-based
[9] = system: MCF7; assay: Antiproliferative activity against human MCF7 assessed as cell growth inhibition measured after 72 hrs by MTT assay; type: functional, cell-based; details: MCF7, 72 h
[10] = system: HCT-116; assay: Antiproliferative activity against human HCT-116 assessed as cell growth inhibition measured after 72 hrs by MTT assay; type: functional, cell-based; details: HCT-116, 72 h
[11] = system: A-431; assay: Antiproliferative activity against human A-431 cells assessed as cell growth inhibition; type: functional, cell-based
[12] = target: Insulin-like growth factor 1 receptor (Homo sapiens, UniProt P08069); assay: Inhibition of IGF1R (unknown origin)
[13] = target: T1, Epidermal growth factor receptor; assay: Inhibition of EGFR (unknown origin)
[14] = system: SK-BR-3; assay: Antiproliferative activity against human SK-BR-3 cells assessed as cell growth inhibition; type: functional, cell-based
[15] = system: KG-1; assay: Antiproliferative activity against human KG-1 cells assessed as cell growth inhibition measured after 72 hrs by MTT assay; type: functional, cell-based; details: KG-1, 72 h
[16] = target: Histone deacetylase; assay: Inhibition of HDAC in human HeLa cell nuclear extract using Boc-Lys (acetyl)-AMC as substrate preincubated for 5 mins followed by substrate addition measured after 30 mins by microplate reader analysis; type: cell-free
[17] = system: A549; assay: Antiproliferative activity against human A549 cells assessed as cell growth inhibition measured after 72 hrs by MTT assay; type: functional, cell-based; details: A549, 72 h
[18] = system: MDA-MB-468; assay: Antiproliferative activity against human MDA-MB-468 cells assessed as cell growth inhibition measured after 72 hrs by MTT assay; type: functional, cell-based; details: MDA-MB-468, 72 h
[19] = system: HeLa; assay: Antiproliferative activity against human HeLa cells assessed as cell growth inhibition measured after 72 hrs by MTT assay; type: functional, cell-based
[20] = system: MDA-MB-231; assay: Antiproliferative activity against human MDA-MB-231 cells assessed as cell growth inhibition measured after 72 hrs by MTT assay; type: functional, cell-based; details: MDA-MB-231, 72 h
[21] = system: B16; assay: Antiproliferative activity against mouse B16 cells assessed as cell growth inhibition incubated for 42 hrs by MTT assay; type: functional, cell-based; details: B16, 42 h
[22] = system: HCT-116; assay: Antiproliferative activity against human HCT-116 cells assessed as cell growth inhibition incubated for 42 hrs by MTT assay; type: functional, cell-based; details: HCT-116, 42 h
[23] = target: T3, Vascular endothelial growth factor receptor 2 (Homo sapiens, UniProt P35968); assay: Inhibition of VEGFR-2 (unknown origin) using FAM-labeled peptide as substrate incubated for 10 mins in presence of ATP by caliper mobility shift assay
[24] = system: MCF7; assay: Antiproliferative activity against human MCF7 cells assessed as cell growth inhibition incubated for 42 hrs by MTT assay; type: functional, cell-based; details: MCF7, 42 h
[25] = target: T1, Epidermal growth factor receptor; assay: Inhibition of EGFR (unknown origin) using FAM-labeled peptide as substrate incubated for 10 mins in presence of ATP by caliper mobility shift assay
[26] = target: Hepatocyte growth factor receptor (Homo sapiens, UniProt P08581); assay: Inhibition of c-MET (unknown origin) incubated for 1 hr by Z-lyte kinase assay
[27] = target: T2, Epidermal growth factor receptor; assay: Inhibition of EGFR T790M mutant (unknown origin) incubated for 1 hr by Z-lyte kinase assay
[28] = target: T2, Epidermal growth factor receptor; assay: Inhibition of EGFR T790M mutant (unknown origin)
[29] = system: NCI-H1975; assay: Antiproliferative activity against human NCI-H1975 cells assessed as cell growth inhibition; type: functional, cell-based
[30] = target: T3, Vascular endothelial growth factor receptor 2; assay: Inhibition of VEGFR2 (unknown origin)
[31] = target: Epidermal growth factor receptor (Homo sapiens, UniProt P00533, L858R/T790M); assay: Inhibition of EGFR L858R/T790M mutant (unknown origin)
[32] = target: T1, Epidermal growth factor receptor; assay: Binding affinity to GST-tagged human recombinant EGFR expressed in baculovirus infected Sf9 insect cells assessed as inhibition constant using poly(Glu,Tyr) 4:1 as substrate incubated for 60 mins in presence of [gamma33P]ATP by microplate scintillation counter analysis
[33] = target: Platelet-derived growth factor receptor beta (Homo sapiens, UniProt P09619); assay: Binding affinity to GST-tagged human recombinant PDFGR beta expressed in baculovirus infected Sf9 insect cells assessed as inhibition constant using poly(Ala,Glu,Lys,Tyr) 6:2:5.1 as substrate incubated for 60 mins in presence of [gamma33P]ATP by microplate scintillation counter analysis

T3 sequence (P35968 whole entry): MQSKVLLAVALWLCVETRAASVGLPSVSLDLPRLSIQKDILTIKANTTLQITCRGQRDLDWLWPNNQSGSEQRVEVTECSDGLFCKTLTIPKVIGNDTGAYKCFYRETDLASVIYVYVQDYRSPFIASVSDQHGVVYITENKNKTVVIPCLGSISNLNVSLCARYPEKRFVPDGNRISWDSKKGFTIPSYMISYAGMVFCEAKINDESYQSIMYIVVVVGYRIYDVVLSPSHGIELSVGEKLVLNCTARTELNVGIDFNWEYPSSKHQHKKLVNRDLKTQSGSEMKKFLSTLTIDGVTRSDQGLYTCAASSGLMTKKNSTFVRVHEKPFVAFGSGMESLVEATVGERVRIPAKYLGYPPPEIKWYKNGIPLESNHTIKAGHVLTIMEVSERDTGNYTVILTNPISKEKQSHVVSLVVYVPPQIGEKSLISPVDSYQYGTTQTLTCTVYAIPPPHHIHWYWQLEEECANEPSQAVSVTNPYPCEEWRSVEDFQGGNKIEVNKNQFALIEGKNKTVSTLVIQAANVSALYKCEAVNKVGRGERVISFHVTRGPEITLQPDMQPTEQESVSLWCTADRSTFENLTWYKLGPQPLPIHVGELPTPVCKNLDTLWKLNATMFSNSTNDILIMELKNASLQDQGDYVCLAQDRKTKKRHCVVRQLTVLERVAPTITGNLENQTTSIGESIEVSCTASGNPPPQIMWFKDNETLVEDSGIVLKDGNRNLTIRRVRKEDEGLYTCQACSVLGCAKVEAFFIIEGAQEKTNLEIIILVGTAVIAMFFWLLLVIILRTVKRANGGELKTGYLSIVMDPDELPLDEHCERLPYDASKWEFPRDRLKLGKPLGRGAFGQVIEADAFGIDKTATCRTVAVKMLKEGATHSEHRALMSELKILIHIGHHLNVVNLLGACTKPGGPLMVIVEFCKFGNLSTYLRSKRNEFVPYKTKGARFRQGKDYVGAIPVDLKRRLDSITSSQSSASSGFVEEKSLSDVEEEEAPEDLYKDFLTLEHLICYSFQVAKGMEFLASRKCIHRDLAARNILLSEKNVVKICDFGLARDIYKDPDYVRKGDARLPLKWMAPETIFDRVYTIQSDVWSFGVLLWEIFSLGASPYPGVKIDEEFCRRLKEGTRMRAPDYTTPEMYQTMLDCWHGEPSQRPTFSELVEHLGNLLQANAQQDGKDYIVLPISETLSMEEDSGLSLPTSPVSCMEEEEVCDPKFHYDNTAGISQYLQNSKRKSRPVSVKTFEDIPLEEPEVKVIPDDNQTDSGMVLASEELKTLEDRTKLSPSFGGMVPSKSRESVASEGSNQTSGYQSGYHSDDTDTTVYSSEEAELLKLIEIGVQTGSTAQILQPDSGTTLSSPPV
T2 sequence (P00533 25-1210 T790M limits assumed): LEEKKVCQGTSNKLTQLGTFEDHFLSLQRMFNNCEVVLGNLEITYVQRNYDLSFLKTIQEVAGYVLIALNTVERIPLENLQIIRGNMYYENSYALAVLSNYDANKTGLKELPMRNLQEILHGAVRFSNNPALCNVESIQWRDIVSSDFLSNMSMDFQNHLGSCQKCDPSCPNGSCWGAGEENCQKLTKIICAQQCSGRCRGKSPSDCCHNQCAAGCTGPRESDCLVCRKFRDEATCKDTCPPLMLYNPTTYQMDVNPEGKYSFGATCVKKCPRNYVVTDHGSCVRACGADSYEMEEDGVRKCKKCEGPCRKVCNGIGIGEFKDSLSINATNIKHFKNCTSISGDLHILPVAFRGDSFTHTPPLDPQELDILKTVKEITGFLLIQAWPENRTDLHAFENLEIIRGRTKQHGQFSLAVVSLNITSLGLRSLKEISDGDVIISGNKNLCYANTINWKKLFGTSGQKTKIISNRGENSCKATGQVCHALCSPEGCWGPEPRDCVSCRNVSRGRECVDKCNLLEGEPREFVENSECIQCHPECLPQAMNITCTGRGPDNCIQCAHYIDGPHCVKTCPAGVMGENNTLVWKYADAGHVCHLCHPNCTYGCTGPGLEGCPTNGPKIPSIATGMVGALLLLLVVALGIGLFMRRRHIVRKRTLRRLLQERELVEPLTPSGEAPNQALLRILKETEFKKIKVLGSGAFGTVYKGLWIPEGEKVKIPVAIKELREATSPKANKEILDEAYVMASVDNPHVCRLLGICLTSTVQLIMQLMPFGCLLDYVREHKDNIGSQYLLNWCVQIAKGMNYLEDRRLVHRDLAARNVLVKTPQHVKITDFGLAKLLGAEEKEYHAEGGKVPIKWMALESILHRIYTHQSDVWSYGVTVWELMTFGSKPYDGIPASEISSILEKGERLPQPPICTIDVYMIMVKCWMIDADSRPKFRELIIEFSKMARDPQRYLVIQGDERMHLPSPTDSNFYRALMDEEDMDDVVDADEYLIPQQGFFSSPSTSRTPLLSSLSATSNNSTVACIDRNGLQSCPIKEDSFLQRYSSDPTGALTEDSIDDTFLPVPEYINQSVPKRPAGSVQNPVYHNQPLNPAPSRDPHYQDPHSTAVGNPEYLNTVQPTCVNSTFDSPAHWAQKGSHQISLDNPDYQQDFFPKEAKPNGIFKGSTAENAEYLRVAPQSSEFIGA
Chain of Hepatocyte growth factor receptor (P08581 whole entry): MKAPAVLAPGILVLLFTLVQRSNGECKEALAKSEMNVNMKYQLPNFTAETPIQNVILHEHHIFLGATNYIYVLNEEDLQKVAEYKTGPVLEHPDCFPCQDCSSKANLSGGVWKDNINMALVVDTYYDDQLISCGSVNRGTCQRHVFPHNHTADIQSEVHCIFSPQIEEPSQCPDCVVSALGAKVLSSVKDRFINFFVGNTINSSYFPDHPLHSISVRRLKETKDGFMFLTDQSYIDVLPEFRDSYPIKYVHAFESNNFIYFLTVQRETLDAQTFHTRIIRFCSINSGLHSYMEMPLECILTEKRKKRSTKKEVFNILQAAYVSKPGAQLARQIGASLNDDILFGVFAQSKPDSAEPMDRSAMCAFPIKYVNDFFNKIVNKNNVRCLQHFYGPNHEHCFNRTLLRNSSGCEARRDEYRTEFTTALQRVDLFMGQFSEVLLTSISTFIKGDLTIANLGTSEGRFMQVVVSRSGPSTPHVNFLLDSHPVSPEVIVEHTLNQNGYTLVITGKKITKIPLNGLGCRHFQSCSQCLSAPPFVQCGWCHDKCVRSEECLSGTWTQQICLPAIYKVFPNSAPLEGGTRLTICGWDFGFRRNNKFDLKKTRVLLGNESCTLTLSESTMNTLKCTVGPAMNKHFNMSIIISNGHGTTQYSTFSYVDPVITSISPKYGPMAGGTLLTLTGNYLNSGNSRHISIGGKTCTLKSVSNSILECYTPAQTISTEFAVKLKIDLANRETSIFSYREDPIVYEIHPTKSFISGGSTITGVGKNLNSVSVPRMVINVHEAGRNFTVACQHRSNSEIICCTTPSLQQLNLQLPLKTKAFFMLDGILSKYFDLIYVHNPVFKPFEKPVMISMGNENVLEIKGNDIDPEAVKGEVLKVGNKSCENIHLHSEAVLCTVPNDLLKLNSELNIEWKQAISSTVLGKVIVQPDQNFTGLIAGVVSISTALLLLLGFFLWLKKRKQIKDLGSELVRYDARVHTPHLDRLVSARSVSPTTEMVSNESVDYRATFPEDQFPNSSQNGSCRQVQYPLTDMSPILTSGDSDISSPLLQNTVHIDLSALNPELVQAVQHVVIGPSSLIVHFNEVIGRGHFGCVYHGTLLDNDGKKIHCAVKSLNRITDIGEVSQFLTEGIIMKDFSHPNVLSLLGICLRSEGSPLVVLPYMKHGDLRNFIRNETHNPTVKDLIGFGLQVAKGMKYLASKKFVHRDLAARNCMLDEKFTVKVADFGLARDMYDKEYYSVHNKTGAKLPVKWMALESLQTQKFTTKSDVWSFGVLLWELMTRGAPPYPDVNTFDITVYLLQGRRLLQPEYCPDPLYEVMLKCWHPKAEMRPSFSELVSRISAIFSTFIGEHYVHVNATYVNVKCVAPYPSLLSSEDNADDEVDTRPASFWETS
T1 sequence (P00533 whole entry): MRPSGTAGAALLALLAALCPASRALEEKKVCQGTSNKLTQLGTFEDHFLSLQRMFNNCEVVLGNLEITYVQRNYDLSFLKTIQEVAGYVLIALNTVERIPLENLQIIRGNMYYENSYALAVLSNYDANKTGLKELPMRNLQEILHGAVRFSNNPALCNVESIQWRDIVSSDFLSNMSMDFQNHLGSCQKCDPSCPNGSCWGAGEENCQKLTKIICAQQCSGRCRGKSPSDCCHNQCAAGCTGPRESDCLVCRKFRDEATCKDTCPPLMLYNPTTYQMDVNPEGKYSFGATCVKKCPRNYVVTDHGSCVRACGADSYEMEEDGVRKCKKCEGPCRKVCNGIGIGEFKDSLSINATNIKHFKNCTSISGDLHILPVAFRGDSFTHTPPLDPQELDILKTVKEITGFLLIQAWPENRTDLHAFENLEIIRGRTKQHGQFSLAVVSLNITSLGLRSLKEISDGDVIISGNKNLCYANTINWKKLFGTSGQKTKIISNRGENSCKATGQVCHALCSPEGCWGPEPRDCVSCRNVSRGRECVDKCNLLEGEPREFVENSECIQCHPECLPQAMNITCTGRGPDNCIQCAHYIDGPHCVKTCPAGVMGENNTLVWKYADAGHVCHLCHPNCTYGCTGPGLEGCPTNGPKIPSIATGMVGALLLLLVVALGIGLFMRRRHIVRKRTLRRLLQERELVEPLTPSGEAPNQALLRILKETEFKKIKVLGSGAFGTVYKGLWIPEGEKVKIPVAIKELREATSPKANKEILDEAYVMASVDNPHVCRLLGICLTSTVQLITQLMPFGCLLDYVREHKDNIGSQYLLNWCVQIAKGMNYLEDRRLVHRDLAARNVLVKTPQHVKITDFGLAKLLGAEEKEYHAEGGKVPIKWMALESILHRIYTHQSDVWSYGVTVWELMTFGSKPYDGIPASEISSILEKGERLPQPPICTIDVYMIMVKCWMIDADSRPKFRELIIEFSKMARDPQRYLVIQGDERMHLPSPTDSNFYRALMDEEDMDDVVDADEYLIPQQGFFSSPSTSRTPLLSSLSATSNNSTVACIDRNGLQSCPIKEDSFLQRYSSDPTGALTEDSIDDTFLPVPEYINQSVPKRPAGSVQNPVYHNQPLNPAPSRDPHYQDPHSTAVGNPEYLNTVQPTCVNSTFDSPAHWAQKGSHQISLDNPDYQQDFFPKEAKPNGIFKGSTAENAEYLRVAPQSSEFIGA

Cc1nn(-c2ccc(F)cc2)c2ncnc(Nc3ccc(F)c(Cl)c3)c12
IC50 [1]: 186 nM

COc1ccc(CCOc2ccc(C(=O)/C=C/c3ccc(O)c(O)c3)cc2OC)cc1OC
IC50 [2]: 11100 nM
IC50 [3]: 5160 nM

CN1CCN(c2ccc(Nc3ncc(Br)c(Nc4ccc5cn[nH]c5c4)n3)cc2)CC1
IC50 [4]: 17.6 nM
IC50 [5]: 336 nM

O=C(Cc1ccccc1)Nc1cccc(-c2nc3n(c2-c2ccnc(Nc4ccc(N5CCOCC5)cc4)n2)CCS3)c1
IC50 [6]: 35.5 nM
IC50 [7]: 66 nM

CCc1nnc2c(Nc3ccc(C(=O)/C=C/c4cc(OC)c(OC)c(OC)c4)cc3)nc3ccccc3n12
IC50 [8]: 8840 nM
IC50 [9]: 1650 nM
IC50 [10]: 3610 nM

CCOc1cc2ncc(C#N)c(Nc3ccc(OCc4ccccc4)cc3)c2cc1NC(=O)/C=C/c1cccnc1
IC50 [11]: 1890 nM
IC50 [12]: 908 nM
IC50 [13]: 597 nM
IC50 [14]: 1930 nM

COc1cc(NC(=O)CCCCCCC(=O)NO)ccc1Nc1nccc(-c2cn(C)c3ccccc23)n1
IC50 [15]: 420 nM
IC50 [16]: 85 nM
IC50 [17]: 2190 nM
IC50 [18]: 230 nM
IC50 [19]: 1850 nM
IC50 [20]: 600 nM

COc1cc2ncnc(Sc3cccc(NC(=S)Nc4ccc(Br)c(C(F)(F)F)c4)c3)c2cc1OC
IC50 [21]: 5570 nM
IC50 [22]: 5570 nM
IC50 [23]: 80 nM
IC50 [24]: 5570 nM
IC50 [25]: 10 nM

CC(C)c1ccc(Cn2cc(-c3cc(-c4ccc(Br)cc4)nc(N)n3)c3ccccc32)cc1
IC50 [26]: 595 nM
IC50 [27]: 94 nM

C=CC(=O)Nc1cc2c(Nc3ccc(Br)cc3F)ncnc2cc1OCCNC(=O)CN(C)C
IC50 [28]: 11 nM
IC50 [11]: 14 nM
IC50 [29]: 130 nM
IC50 [30]: 103 nM
IC50 [13]: 2 nM
IC50 [31]: 3 nM

Nc1nc(Nc2ccc(COc3cccc(F)c3)cc2)c2c(n1)[nH]c1ccc(O)cc12
Ki [32]: 170 nM
Ki [33]: 81 nM

CCc1ccc(Cn2cc(-c3cc(-c4ccc(Br)cc4)nc(N)n3)c3ccccc32)cc1
IC50 [26]: 518 nM
IC50 [27]: 97 nM

Nc1nc(-c2ccc(Br)cc2)cc(-c2cn(Cc3cccc(Cl)c3)c3ccccc23)n1
IC50 [26]: 101 nM
IC50 [27]: 195 nM

COc1cc2ncnc(Oc3cccc(NC(=S)Nc4ccc(Cl)c(C(F)(F)F)c4)c3)c2cc1OC
IC50 [21]: 5570 nM
IC50 [22]: 5570 nM
IC50 [23]: 50 nM
IC50 [24]: 5570 nM
IC50 [25]: 20 nM

CCOc1cc2ncc(C#N)c(Nc3ccc(OCc4ccccn4)c(Cl)c3)c2cc1NC(=O)/C=C/CN(C)C [NERATINIB]
IC50 [11]: 2150 nM
